Measurements published in patent US5723484A, “Benzopyran compounds as 5-HT2C receptor antagonists” (Adir et Compagnie, priority 1994, dated 1998).

Key:
5-HT2C receptors [1] = conditions: literature; cited from earlier work
5-HT2A receptors [2] = biological target: T1, 5-HT2A receptors (Rattus norvegicus, UniProt P14842); experiment: In vitro affinity for the 5-HT2A receptors, rat frontal cortex/[3H]-ketanserin (1.0 nM); type: binding
T1 construct: rat frontal cortex; from tissue; host or cells: rat frontal cortex
Protocol: (§1) Measurement of the in vitro affinity for the 5-HT2C and 5-HT2A receptors
(§2) The procedures described for the studies of the binding to the 5-HT2A and 5-HT2C receptors are exactly those described by H. Canton et al. (Eur. J. Pharmacol., 191, 93, 1990) and M. J. Millan et al. (J. Pharmacol. Exp. Ther., 262, 451-463, 1992). For 5-HT2A : rat frontal cortex/[^3 H]-ketanserin (1.0 nM). For 5-HT2C : pig […] plexus/[^3 H]-mesulergine (1.0 nM). The 50% inhibitory doses (ID50) are determined by regression analysis and the pKi values are calculated as follows: [formula] [L]=concentration of the Kd-Kd=dissociation constant Results

5-HT2C receptors [3] = biological target: T2, 5-HT2C receptors (Sus scrofa, UniProt K7GSR7); experiment: biochemical; type: binding, pig
T2 construct: pig cerebral plexus; from tissue; host or cells: pig cerebral plexus (own knowledge: choroid plexus)
T2 sequence (K7GSR7 1-457): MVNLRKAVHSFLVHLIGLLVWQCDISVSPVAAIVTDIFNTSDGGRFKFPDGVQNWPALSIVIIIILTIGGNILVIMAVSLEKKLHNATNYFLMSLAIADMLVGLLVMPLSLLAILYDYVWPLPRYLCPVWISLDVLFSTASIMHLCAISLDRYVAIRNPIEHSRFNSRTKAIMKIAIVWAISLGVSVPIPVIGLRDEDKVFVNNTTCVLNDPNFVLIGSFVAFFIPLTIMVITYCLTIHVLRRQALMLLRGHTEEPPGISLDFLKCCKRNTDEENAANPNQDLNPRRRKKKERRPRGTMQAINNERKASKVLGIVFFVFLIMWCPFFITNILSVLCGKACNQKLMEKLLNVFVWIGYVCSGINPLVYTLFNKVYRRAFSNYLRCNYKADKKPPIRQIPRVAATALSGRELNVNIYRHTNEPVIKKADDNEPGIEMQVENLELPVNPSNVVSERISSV
Protocol: as §1, §2

5-HT2A receptors [4] = conditions: literature; cited from earlier work
patients = conditions: clinical results in patients, literature; cited from earlier work

T1 sequence (P14842 whole entry): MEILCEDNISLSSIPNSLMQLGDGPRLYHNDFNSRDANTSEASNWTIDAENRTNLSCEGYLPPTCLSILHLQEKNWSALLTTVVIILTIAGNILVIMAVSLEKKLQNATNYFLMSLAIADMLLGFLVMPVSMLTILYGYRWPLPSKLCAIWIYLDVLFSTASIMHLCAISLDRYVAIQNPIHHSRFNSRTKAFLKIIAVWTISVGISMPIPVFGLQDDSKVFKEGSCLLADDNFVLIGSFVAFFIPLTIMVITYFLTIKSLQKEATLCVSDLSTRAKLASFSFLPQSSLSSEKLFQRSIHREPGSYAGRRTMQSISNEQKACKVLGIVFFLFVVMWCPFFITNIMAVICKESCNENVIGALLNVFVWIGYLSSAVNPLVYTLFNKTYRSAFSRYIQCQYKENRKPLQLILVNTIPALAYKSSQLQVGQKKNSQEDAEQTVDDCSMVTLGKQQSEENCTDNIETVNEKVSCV

| SMILES | action at 5-HT2C receptors (5-HT2C receptors [1]) | affinity for the 5-HT2A sites/receptors (5-HT2A receptors [2]) | Ki (5-HT2A receptors [2]; rat frontal cortex, [3H]-ketanserin 1.0 nM, average of two to four determinations) [nM] | affinity for the 5-HT2C receptors (5-HT2C receptors [3]) | Ki (5-HT2C receptors [3]; 5-HT2C Ki (nM), pig cerebral plexus, [3H]-mesulergine 1.0 nM, average of two to four determinations) [nM] | Ki (5-HT2C receptors [3]; affinity for the 5-HT2C receptors, of the order of) [nM] | action at 5-HT2A receptors (5-HT2A receptors [4]) | anxiogenic properties and exacerbation of psychiatric states (patients) |
| --- | --- | --- | --- | --- | --- | --- | --- | --- |
| Cn1ccc2cc(NC(=O)Nc3cccnc3)ccc21 [SB 200,646, reference compound] | selective 5-HT2C antagonist | weak affinity | 1320 | modest affinity | 204 | ~200 | – | – |
| Clc1cccc(N2CCNCC2)c1 [mCPP] | 5-HT2C agonist | – | – | – | – | – | 5-HT2A antagonist | pronounced anxiogenic properties and which exacerbates depressive, aggressive and psychotic states in patients |
| COc1cccc([C@H](O)C2CCN(CCc3ccc(F)cc3)CC2)c1OC [MDL 100,907, reference compound] | – | very strong affinity | – | – | – | – | selective 5-HT2A antagonist | – |
